The assay deals with L1210 leukemia ip in BDF1 mice, survival T/C. Nature of the assay: NCI In Vivo Anticancer Drug Screen. Data for tumor model L1210 Leukemia (intraperitoneal) in B6D2F1 (BDF1) mice. To be noted: endpoint: mean survival time, higher = longer survival. Put shortly:
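Transplanted-tumor mice were given test agent; controls received vehicle only. Survival readings from the two groups were divided (treated over control).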

Where [1] appears, read: dose: 100.0 mg/kg/injection, schedule: Q01DX009 (ip), vehicle: saline with Tween-80.
Setting [2] is: dose: 100.0 mg/kg/injection, schedule: Q04DX003 (ip), vehicle: Klucel (hydroxypropylcellulose) (HPC).
[3] abbreviates: dose: 200.0 mg/kg/injection, schedule: Q01DX009 (ip), vehicle: saline with Tween-80.
Setting [4] is: dose: 200.0 mg/kg/injection, schedule: Q04DX003 (ip), vehicle: Klucel (hydroxypropylcellulose) (HPC).
[5] abbreviates: dose: 400.0 mg/kg/injection, schedule: Q04DX003 (ip), vehicle: Klucel (hydroxypropylcellulose) (HPC).

SMILES strings stand for the structures. “And” between values parts separate entries of the source, which are not always exact repeats. Identical values can stand only once. Toxic doses and inconclusive results are not listed.

Regarding `COc1cc(NC(=O)N(CCCl)N=O)cc(OC)c1OC`, the T/C is 105 % of control (dose: 0.12 mg/kg/injection, schedule: Q01DX009 (ip), vehicle: saline); 118 % of control (dose: 0.25 mg/kg/injection, schedule: Q01DX009 (ip), vehicle: saline); 112 % of control (dose: 0.5 mg/kg/injection, schedule: Q01DX009 (ip), vehicle: saline); 115 % of control (dose: 1.0 mg/kg/injection, schedule: Q01DX009 (ip), vehicle: saline); 111 % of control (dose: 1.5 mg/kg/injection, schedule: Q01DX001 (ip), vehicle: carboxymethylcellulose (CMC)); 161 % of control (dose: 2.5 mg/kg/injection, schedule: Q01DX009 (ip), vehicle: saline). Also, the T/C (dose: 3.0 mg/kg/injection, schedule: Q01DX001 (ip), vehicle: carboxymethylcellulose (CMC)) was 108 % of control; the T/C (dose: 5.0 mg/kg/injection, schedule: Q01DX009 (ip), vehicle: saline) was 177 % of control; the T/C (dose: 6.0 mg/kg/injection, schedule: Q01DX001 (ip), vehicle: carboxymethylcellulose (CMC)) is 118 % of control; the T/C (dose: 10.0 mg/kg/injection, schedule: Q01DX009 (ip), vehicle: saline) was 164 % of control; the T/C (dose: 11.0 mg/kg/injection, schedule: Q01DX009 (ip), vehicle: saline with Tween-80) is 157 % of control and 216 % of control; the T/C (dose: 12.0 mg/kg/injection, schedule: Q01DX001 (ip), vehicle: carboxymethylcellulose (CMC)) is 151 % of control. Also, the T/C (dose: 15.0 mg/kg/injection, schedule: Q01DX009 (ip), vehicle: saline) was 164 % of control; the T/C (dose: 16.6 mg/kg/injection, schedule: Q01DX009 (ip), vehicle: saline with Tween-80) is 223 % of control; the T/C (dose: 22.0 mg/kg/injection, schedule: Q01DX009 (ip), vehicle: saline) is 216 % of control; the T/C (dose: 25.0 mg/kg/injection, schedule: Q01DX001 (ip), vehicle: carboxymethylcellulose (CMC)) is 252 % of control; the T/C (dose: 25.0 mg/kg/injection, schedule: Q01DX001 (ip), vehicle: saline) is 155 % of control; the T/C (dose: 25.0 mg/kg/injection, schedule: Q01DX009 (ip), vehicle: saline with Tween-80) is 208 % of control. Also, the T/C was 178 % of control (dose: 33.0 mg/kg/injection, schedule: Q01DX009 (ip), vehicle: saline); 153 % of control (dose: 37.5 mg/kg/injection, schedule: Q01DX001 (ip), vehicle: saline); 110 % of control (dose: 37.5 mg/kg/injection, schedule: Q01DX009 (ip), vehicle: saline with Tween-80); 106 % of control (dose: 50.0 mg/kg/injection, schedule: Q01DX001 (ip), vehicle: carboxymethylcellulose (CMC)); 260 % of control (dose: 50.0 mg/kg/injection, schedule: Q01DX009 (ip), vehicle: saline); 236 % of control (dose: 75.0 mg/kg/injection, schedule: Q01DX001 (ip), vehicle: carboxymethylcellulose (CMC)). The T/C (dose: 75.0 mg/kg/injection, schedule: Q01DX009 (ip), vehicle: saline) is 173 % of control.
Consider `Cc1[nH]c(=S)[nH]c(=O)c1CCC(=O)O`, for which the T/C under setting [1] was 96 % of control; the T/C under setting [2] is 94 % of control; the T/C under setting [3] was 98 % of control; the T/C under setting [4] was 102 % of control; the T/C (dose: 400.0 mg/kg/injection, schedule: Q01DX009 (ip), vehicle: saline with Tween-80) was 98 % of control; the T/C under setting [5] was 102 % of control.
Consider `O=C(CCCCn1cnc2c(=S)nc[nH]c21)Nc1ccc(C(=O)O)cc1`, for which the T/C runs as follows: (dose: 50.0 mg/kg/injection, schedule: Q01DX Z (ip), vehicle: carboxymethylcellulose (CMC)) 101 % of control; (dose: 100.0 mg/kg/injection, schedule: Q01DX Z (ip), vehicle: carboxymethylcellulose (CMC)) 95 % of control; (dose: 200.0 mg/kg/injection, schedule: Q01DX Z (ip), vehicle: carboxymethylcellulose (CMC)) 104 % of control; (dose: 400.0 mg/kg/injection, schedule: Q01DX Z (ip), vehicle: carboxymethylcellulose (CMC)) 96 % of control.
Take `COC1CC2C=CC1C2` (stereo not given): the T/C reads like this: (dose: 50.0 mg/kg/injection, schedule: Q01DX009 (ip), vehicle: saline with Tween-80) 92 % of control; under setting [1], 89 % of control; under setting [3], 92 % of control.
`Cc1ccc(NC(=O)c2cccc(C(=O)Nc3ccc(C)c(C)c3)c2)cc1C`: the T/C is 94 % of control (dose: 100.0 mg/kg/injection, schedule: Q01DX009 (ip), vehicle: Klucel (hydroxypropylcellulose) (HPC)); 91 % of control under setting [2]; 104 % of control (dose: 200.0 mg/kg/injection, schedule: Q01DX009 (ip), vehicle: Klucel (hydroxypropylcellulose) (HPC)); 97 % of control under setting [4]; 94 % of control (dose: 400.0 mg/kg/injection, schedule: Q01DX009 (ip), vehicle: Klucel (hydroxypropylcellulose) (HPC)); 91 % of control under setting [5].
For `COC(=O)C1CC2CCC1O2` (stereo not given), the T/C reads like this: (dose: 100.0 mg/kg/injection, schedule: Q01DX009 (ip), vehicle: carboxymethylcellulose (CMC)) 100 % of control; (dose: 200.0 mg/kg/injection, schedule: Q01DX009 (ip), vehicle: carboxymethylcellulose (CMC)) 98 % of control; (dose: 400.0 mg/kg/injection, schedule: Q01DX009 (ip), vehicle: carboxymethylcellulose (CMC)) 94 % of control.
In the case of `CCCCOCCOCCOc1ccc(C(=O)OC)cc1`, the T/C reads like this: (dose: 100.0 mg/kg/injection, schedule: Q01DX001 (ip), vehicle: saline sonified) 103 % of control; (dose: 200.0 mg/kg/injection, schedule: Q01DX001 (ip), vehicle: saline sonified) 96 % of control; (dose: 400.0 mg/kg/injection, schedule: Q01DX001 (ip), vehicle: saline sonified) 100 % of control.

Source of the values: PubChem BioAssay AID248 (DTP/NCI, 2004).
